{
  "source": "patent US9072751B2",
  "about": "“Na/K-ATPase ligand” (priority 2006, dated 2015)",
  "key": {"[1]": {"test_system": "isolated cardiac fibroblasts", "test": "Radiolabeled proline incorporation into collagen (collagen synthesis) in cardiac fibroblasts", "type": "cell-based, rat", "conditions": "10^−9 and 10^−8 M", "method": "Preparation of adult rat cardiac fibroblasts was performed as described previously by Brilla et al. with modifications.\nCollagen synthesis rates were determined by the method of Nishida et al. with modification.\nTo further examine the molecular basis of this cardiac fibrosis, isolated cardiac fibroblasts were subjected to increase doses of MBG (10^−10, 10^−9, and 10^−8 M). […] Using collagenase digestion, we observed that the vast majority of the proline incorporation was into collagen. Using standardized RT-PCR, we observed a doubling of mRNA for collagen-1 at 24 hours in response to 10 nM of MBG.\nRepresentative Western blot for procollagen and quantitative densitometric data obtained in response to different doses of (a) MBG (all N=10), (b) MBG 10 nM contrasted with different doses of ouabain (0.1 to 100 nM) and digoxin (10 nM; all N=8). c, ouabain sensitive Rb uptake as a function of MBG and ouabain concentration (N=4 at each concentration for both MBG and ouabain; data expressed as fraction of control). d, relative proline incorporation in the supernatant and matrix, both will and without collagenase digestion (total). Each group (controls and different doses of MBG) contains N=7 replicants. The difference between the total and after collagenase digestion is reported as collagen. The matrix is the sample that was obtained after removing supernatant and scraping the culture dish. e, mRNA for collagen 1 in MBG-treated (10 nM; N=8) or control (N=8) fibroblasts. f, procollagen stability after cycloheximide treatment. Time 0 is 1 hour after incubation with cycloheximide (20 μg/mL). […] Least-square regression line fit to control (CTL) and MBG data. Bars on quantitative graphs represent the mean.+−.SEM. *P<0.05 and **P<0.01 vs control.\n(§1) The effects of PP2 (1 μmol/L), herbimycin (1 μmol/L), AG1478 (250 nM), and N-acetyl cysteine (2.5 mmol/L) on MBG (10 nM) stimulation of procollagen expression also were found. The PP2, herbimycin AG1478, and N-acetyl cysteine were administered from 2 hours before the addition of MBG and continued throughout the 24 hours of MBG incubation (total of 26 hours). Each bar represents the mean.+−.SEM of n=8 experiments. b, effects of PP2 (1 μmol/L) and N-acetyle cysteine (2.5 mmol/L) on MBG (10 nM)-stimulated proline incorporation into collagen. Again, the PP2 an N-acetyl cysteine were added 2 hours before exposure to MBG. Each bar represents the mean.+−.SEM of N=5 experiments. c, effects of MBG 10 nM on procollagen content in SYF and SYF+ cells. Representative Western blots are shown above quantitative data. SYF blots loaded with 15 μg of protein and SYF+blots loaded with 10 μg of protein. Each bar represents the mean.+−SEM of N-6 determinations In each group. **P<01.10 vs. control.\nThe effect of 24 hours of MBG (1 and 10 nM) on TGF-β, Smad 2/3, Smad 4, and pSmad 2/3 expression determined by Western blot. b and c, effects of 24 hours of MBG (10 nM), TGFβ(5 ng/mL), and the TGF-β receptor antagonist SB431542 ([…] on procollagen-1 expression (Western blot) and radiolabeled proline incorporation, respectively also were carried out. SB431542 was added 2 hours before exposure to either TGFβ or MBG (total of 26-hour exposure). Each bar represents the mean.+−.SEM of 6 to 8 determinations. *P<0.05, **P<0.01 vs. control."}, "SYF+Src line": {"test_system": "SYF+Src line", "test": "In vitro wound healing (scrape injury) in SYF+Src fibroblasts", "type": "cell-based, mouse", "conditions": "12 hour pretreatment", "method": "Next, we examined whether wound healing might be advantageously impacted by cardiotonic steroids. We grew a mouse fibroblast cell line, the SYF+Src line to confluence and make injuries by scraping with a pipette tip.\nRepresentative images from fibroblasts at 3, 7 and 12 hours following injury. Quantification of wound closure from fibroblast cultures. Data represents N=6 separate pairs of experiments, each of which involves 3 determinations at each time point. Data shown as mean+/−SEM. **<0.01. We proposed to enhance skin fibroblast collagen production by topical or injected administration of cardiotonic steroids and prevent or reverse aging related loss of skin tone."}, "SYF cells": {"test_system": "SYF cells", "test": "Procollagen expression in SYF cells", "type": "cell-based", "conditions": "MBG 10 nM", "excerpt": "To examine whether cardiotronic steroids induced collagen synthesis by signaling through the Na/K-ATPase, we performed the following studies. First, we used pharmacological antagonism at several steps in the Na/K-ATPase cascade. Specifically, we used pharmacological antagonism of Src activation with PP2, nonspecific tyrosine kinase inhibition with herbimycin, inhibition of EGFR transactivation with AG1478, and nonspecific antioxidant administration with N-acetyle cysteine. […] Next we performed studies in the SYF and SYF+ cells (details available in the online supplement).\nas §1, with “SYF blots loaded with 15 μg of protein and SYF+blots loaded with 10 μg of protein. Each bar represents the mean.+−SEM of N-6 determinations In each group. **P<01.10 vs. control.” left out"}},
  "data": [
    {"smiles": "C[C@]12CC[C@H](O)C[C@@]1(O)CC[C@@H]1[C@@H]2CC[C@]2(C)[C@@H](c3ccc(=O)oc3)C[C@H]3O[C@]132", "note": "[MBG, marinobufagenin]", "values": [
      {"measurement": "Proline incorporation into total protein, matrix and supernatant", "setting": "[1]", "value": "significant increases"},
      {"measurement": "Closure of the experimental lesion", "setting": "SYF+Src line", "value": "markedly accelerated"},
      {"measurement": "Response of procollagen expression in SYF cells", "setting": "SYF cells", "value": "essentially no response"}
    ]}
  ]
}
